Assay results taken from PMC10458458, “Characterization of Anticancer Effects of the Analogs of DJ4, a Novel Selective Inhibitor of ROCK and MRCK Kinases” (Pharmaceuticals, 2023).

Columns and labels:
[1] = tested on: A549; test: MTT cytotoxicity assay, 72 h; format: cell-based; conditions: Homo sapiens, A549 NSCLC cells, plated to confluence, read-out: IC50 (mean cytotoxic concentration, MTT)
Procedure: (§1) To determine whether the effects on cell viability in AML cells were related to the specific cancer subtypes, or to differences in temporal response to DJ4, we examined whether DJ4 affected the viability of various NSCLC cells over longer periods of drug exposure. MTT assays were performed on H1299, H226, A549, H522, H23, and H460 NSCLC cell lines. […] Similarly, the cell viability of MDA-MB-231 breast cancer cells was assessed by counting live/dead cell populations after a 24-h treatment with 1–10 µM concentrations of DJ4. A concentration-dependent increase in cell death from 29% (1 µM) to 47% (10 µM) was observed (Figure 2B).
(§2) The cytotoxic effect of DJ4 was studied in H1299, H226, A549, H522, H23, and H460 non-small cell lung cancer cells. The cells were seeded into 96-well plates with confluence ([…]). The cells were further treated with DMSO or DJ4 for 72 h. To study the effects of analogs, A549, A375M, and MDA-MB-231 cells were plated with low density (2000 cells/well) in a 96-well plate and grown overnight at 37 °C (with 5% CO2). Cells were treated with the analogs at the concentration of 0–10 µM for 48 h. At the end of the treatment period, cells were incubated with a tetrazolium dye MTT (3-(4,5-dimethylthiazol-2-yl)-2,5-diphenyltetrazolium bromide) reagent (Sigma) at 37 °C for 3 h to develop formazan crystals. The media was siphoned off and crystals were dissolved in DMSO and mixed gently on rocker for 5 min. Absorbance was read at 570 nm and 630 nm (background) wavelength. IC50 values were calculated from non-linear regression curve fit by using GraphPad Prism 5.0 software.

[2] = tested on: H1299; test: MTT cytotoxicity assay, 72 h; format: cell-based; conditions: Homo sapiens, NCI-H1299, H1299 NSCLC cells, plated to confluence, read-out: IC50 (mean cytotoxic concentration, MTT)
Procedure: as §1, §2

[3] = tested on: H226; test: MTT cytotoxicity assay, 72 h; format: cell-based; conditions: Homo sapiens, NCI-H226, H226 NSCLC cells, plated to confluence, read-out: IC50 (mean cytotoxic concentration, MTT)
Procedure: as §1, §2

[4] = tested on: H23; test: MTT cytotoxicity assay, 72 h; format: cell-based; conditions: Homo sapiens, NCI-H23, H23 NSCLC cells, plated to confluence, read-out: IC50 (mean cytotoxic concentration, MTT)
Procedure: as §1, §2

[5] = tested on: H522; test: MTT cytotoxicity assay, 72 h; format: cell-based; conditions: Homo sapiens, NCI-H522, H522 NSCLC cells, plated to confluence, read-out: IC50 (mean cytotoxic concentration, MTT)
Procedure: as §1, §2

[6] = tested on: pMYPT1 (Thr696 and Thr853) in MDA-MB-231 cells; test: Western blot of MYPT1 phosphorylation (ROCK1/2 targeting); format: cell-based, human; conditions: MDA-MB-231, 2.5, 5.0 and 10 µM, 24 h
Procedure: (§3) To extend these observations to MDA-MB-231 breast cancer cells, cells were treated with DJ4 at 2.5, 5.0, and 10 µM for 24 h. ROCK1/2 catalyzes the inactivating phosphorylation of the myosin phosphatase subunit MYPT1 at Thr696 and Thr853 [16]. To confirm the targeting of ROCK1/2 by DJ4 in MDA-MB-231 cells, we probed for phosphorylation of MYPT1.
(§4) For protein expression studies, MDA-MB-231 cells were treated with indicated concentrations of DJ4 for 24 h. Additionally, A549 cells were treated for 24 h and 48 h. Cell lysate preparation, protein estimation, and Western blot analysis was performed as per the procedure reported earlier. The blots were probed with cleaved caspase 7 (#9492, Cell Signaling, Danvers, MA, USA), GAPDH (#97166, Cell Signaling, Danvers, MA, USA), β-Actin (#3700, Cell Signaling, Danvers, MA, USA), pErk (#5726, Cell Signaling, Danvers, MA, USA), p21 ^WAF1/CIP1 (#60480, Cell Signaling, Danvers, MA, USA), cyclinD3 (#2936, Cell Signaling, Danvers, MA, USA), CDK4 (#23972, Cell Signaling, Danvers, MA, USA), cleaved PARP (#32563, Cell Signaling, Danvers, MA, USA), pan Erk (#23887, Cell Signaling, Danvers, MA, USA), pMYPT1 (Thr853, # SAB4503944, Millipore, Inc., Burlington, MA, USA) and PCNA (#sc-56, Santa Cruz Biotechnology, Inc., Dallas, TX, USA) antibodies.

[7] = tested on: MDA-MB-231 breast cancer cells; test: Western blot of proliferation and apoptosis proteins; format: cell-based, human; conditions: 24 h
Procedure: as §3
In contrast, expression of proliferating cell nuclear antigen (PCNA) protein was decreased at all the concentrations (Figure 4C). PCNA is highly expressed during active DNA synthesis (S phase).
as §4

[8] = target: ROCK1 (Homo sapiens, UniProt Q13464); test: KINOMEscan competition binding assay; set-up: purchased DiscoverX Corporation (Lead Hunter Discovery Services, KINOMEscan); conditions: ROCK1, 10 µM
Sequence of ROCK1 (Q13464 whole entry): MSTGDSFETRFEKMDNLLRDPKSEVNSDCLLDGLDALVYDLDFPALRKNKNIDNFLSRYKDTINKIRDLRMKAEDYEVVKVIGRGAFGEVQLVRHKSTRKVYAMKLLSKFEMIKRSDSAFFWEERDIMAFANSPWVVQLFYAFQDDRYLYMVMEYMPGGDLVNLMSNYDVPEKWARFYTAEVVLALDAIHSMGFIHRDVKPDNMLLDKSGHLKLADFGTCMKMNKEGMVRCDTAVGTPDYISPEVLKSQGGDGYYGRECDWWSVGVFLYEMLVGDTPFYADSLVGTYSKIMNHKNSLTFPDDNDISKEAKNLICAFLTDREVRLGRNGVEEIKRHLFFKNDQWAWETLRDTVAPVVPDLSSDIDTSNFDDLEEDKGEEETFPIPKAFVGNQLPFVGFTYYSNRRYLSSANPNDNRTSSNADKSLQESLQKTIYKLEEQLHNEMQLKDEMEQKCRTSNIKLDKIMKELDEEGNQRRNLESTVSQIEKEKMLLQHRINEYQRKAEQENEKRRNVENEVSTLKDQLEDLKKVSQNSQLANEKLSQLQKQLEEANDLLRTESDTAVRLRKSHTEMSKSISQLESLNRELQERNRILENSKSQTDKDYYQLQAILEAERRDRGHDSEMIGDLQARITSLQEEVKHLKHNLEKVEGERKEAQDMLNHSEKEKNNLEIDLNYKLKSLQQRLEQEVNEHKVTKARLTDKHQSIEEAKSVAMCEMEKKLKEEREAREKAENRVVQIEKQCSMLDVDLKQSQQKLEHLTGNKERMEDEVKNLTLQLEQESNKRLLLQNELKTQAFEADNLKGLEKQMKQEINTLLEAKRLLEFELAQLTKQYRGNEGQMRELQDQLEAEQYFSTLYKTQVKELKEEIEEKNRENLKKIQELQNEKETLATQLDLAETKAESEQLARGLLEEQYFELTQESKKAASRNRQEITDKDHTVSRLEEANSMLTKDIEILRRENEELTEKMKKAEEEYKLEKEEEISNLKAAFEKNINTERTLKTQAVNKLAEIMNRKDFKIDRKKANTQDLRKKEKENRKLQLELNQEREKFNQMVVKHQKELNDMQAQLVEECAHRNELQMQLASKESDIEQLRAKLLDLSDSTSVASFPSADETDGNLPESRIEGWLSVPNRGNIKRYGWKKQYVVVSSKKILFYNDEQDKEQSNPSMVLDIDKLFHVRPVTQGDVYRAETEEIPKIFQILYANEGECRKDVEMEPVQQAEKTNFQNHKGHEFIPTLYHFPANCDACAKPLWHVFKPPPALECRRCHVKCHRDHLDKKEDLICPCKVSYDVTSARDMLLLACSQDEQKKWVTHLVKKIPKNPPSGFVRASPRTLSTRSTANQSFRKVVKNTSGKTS
Excerpt: (§5) To examine specificity of DJ4 to different human kinases, we performed a KINOMEscan profiling assay (DiscoverX, Fremont, CA, USA). The KINOMEscan assay consists of a panel of more than 480 kinases of different classes (TK/TKL/STE/CK1/AGC/CAMK/CMGC/others), including clinically relevant mutants, atypical kinases, lipid, and pathogen kinases. […] However, we also recognized the limitations of DJ4 that preclude its clinical development and the need for further optimization of the DJ4 chemotype.
(§6) The KINOMEscan®, in vitro competition binding assay, was performed by Lead Hunter Discovery Services (DiscoverX Corporation, Fremont, CA, USA) to determine the kinase specificity of DJ4, a novel kinase inhibitor [19, 44]. The KINOMEscan® panel consists of more than 480 kinases, including clinically relevant mutants, lipid, atypical, and pathogen kinases, plus a growing panel of activation-state specific assays. The primary screen was performed using a single concentration of 10 µM, and the results for DJ4 binding interactions are reported as percent of control (%Ctrl). The %Ctrl is calculated as follows: [(DJ4 signal-positive control signal)/(negative control DMSO signal-positive control signal)] x […]. The human kinome tree annotation for DJ4 is plotted with Reaction Biology’s Kinase Mapper and KinMap web interface tool http://kinhub.org/kinmap (accessed on 09 January 2023).

[9] = target: ROCK2 (Homo sapiens, UniProt O75116); test: KINOMEscan competition binding assay; set-up: purchased DiscoverX Corporation (Lead Hunter Discovery Services, KINOMEscan); conditions: ROCK2, 10 µM
Sequence of ROCK2 (O75116 whole entry): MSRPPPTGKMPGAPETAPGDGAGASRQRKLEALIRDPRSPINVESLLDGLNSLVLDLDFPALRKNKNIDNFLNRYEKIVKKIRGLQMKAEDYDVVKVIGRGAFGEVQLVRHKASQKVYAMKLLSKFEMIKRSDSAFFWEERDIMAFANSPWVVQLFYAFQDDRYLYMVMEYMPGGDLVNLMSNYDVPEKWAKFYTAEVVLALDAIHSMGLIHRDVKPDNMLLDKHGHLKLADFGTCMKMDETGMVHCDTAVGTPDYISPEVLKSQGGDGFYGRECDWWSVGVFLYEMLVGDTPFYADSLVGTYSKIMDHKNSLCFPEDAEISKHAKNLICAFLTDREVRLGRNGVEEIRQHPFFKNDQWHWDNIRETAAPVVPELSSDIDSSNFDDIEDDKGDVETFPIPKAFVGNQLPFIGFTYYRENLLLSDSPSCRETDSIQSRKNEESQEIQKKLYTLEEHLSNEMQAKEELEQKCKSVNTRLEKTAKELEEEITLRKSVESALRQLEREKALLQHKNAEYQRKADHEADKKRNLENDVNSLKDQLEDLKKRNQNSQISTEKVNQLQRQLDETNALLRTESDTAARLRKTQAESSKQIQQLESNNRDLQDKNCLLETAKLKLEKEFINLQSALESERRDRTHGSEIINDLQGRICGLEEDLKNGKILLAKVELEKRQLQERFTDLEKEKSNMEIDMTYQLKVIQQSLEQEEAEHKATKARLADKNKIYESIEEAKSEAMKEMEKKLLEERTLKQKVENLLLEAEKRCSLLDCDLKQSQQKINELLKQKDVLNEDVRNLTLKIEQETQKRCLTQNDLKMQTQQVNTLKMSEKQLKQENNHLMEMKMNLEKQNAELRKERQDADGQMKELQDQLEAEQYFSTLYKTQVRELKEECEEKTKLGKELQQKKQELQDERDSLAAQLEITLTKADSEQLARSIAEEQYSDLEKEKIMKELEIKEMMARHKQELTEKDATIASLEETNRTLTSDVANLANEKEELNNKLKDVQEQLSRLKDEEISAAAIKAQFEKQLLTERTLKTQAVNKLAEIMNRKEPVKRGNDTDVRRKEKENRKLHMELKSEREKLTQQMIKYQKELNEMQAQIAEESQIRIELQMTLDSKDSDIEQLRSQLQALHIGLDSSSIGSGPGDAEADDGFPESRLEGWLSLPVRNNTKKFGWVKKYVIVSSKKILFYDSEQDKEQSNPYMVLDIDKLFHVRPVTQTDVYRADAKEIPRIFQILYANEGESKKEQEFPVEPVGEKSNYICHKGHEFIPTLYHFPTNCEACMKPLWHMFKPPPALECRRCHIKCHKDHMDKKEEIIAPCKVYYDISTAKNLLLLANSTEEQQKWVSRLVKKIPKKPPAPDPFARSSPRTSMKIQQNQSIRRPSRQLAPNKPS
Excerpt: as §5, §6

[10] = MDA-MB-231, all concentrations (2.5, 5.0, 10 µM)

O=C1N/C(=N\CCc2ccccc2)S/C1=C/c1c[nH]c2ncccc12 [DJ4]
IC50 [1]: 980 ± 210 nM
IC50 [2]: 440 ± 40 nM
IC50 [3]: 670 ± 380 nM
IC50 [4]: 2910 ± 710 nM
IC50 [5]: 1690 ± 480 nM
pMYPT1 (Thr696 and Thr853) [6]: concentration-dependent decrease
expression of pErk ([7]; MDA-MB-231, 2.5, 5.0 and 10 µM): significantly increased
cleaved PARP [7, 10]: corresponding increases
expression of PCNA [7, 10]: decreased
expression of cleaved caspase 7 [7, 10]: significantly increased
inhibition at 10 µM [8]: > 98%
inhibition at 10 µM [9]: > 98%
